Assay results reported in patent publication US20230365626A1, “Alloferon Peptide and Method Using the Same” (Industry Academy Cooperation Foundation of Sejong University, priority 2020, published 2023).
Square brackets hold non-standard residues; d marks the D form. Ends that are not written are not given here. Peptide text beside a SMILES is read from it.

Tests used:
[1] = Body weight change during intraperitoneal administration; format: in vivo, mice; details: 16 mg/kg intraperitoneal, 14 weeks (FIG. 10C)
IL-6 = experiment: Plasma cytokine ELISA after intraperitoneal injection; format: in vivo, mice; details: 0.5, 2, 8, and 16 mg/kg intraperitoneally, after 1 hour
Experimental: (§3) Specifically, the alloferon D-form peptides were intraperitoneally injected at 0.5, 2, 8, and 16 mg/kg, and after 1 hour, blood was collected from the retro-orbital plexus of the mice. The collected blood was centrifuged at 2,000 g at 4° C. for 20 minutes using a centrifuge, and then only the supernatant was taken to obtain plasma. Thereafter, an experiment was performed using TNF-α and IL-6 Elisa kit (RayBiotech, USA). Specifically, 100 μL of plasma sample was put into a 96-well microplate coated with each of anti-TNF-α and anti-IL-6 antibodies, and then left while shaking at room temperature for 2 hours and 30 minutes. Thereafter, the sample was discarded, washed 4 times with a wash buffer provided from the kit, and then 100 μL of the biotin-binding secondary antibodies was reacted for 1 hour. Then, it was washed 4 times with a washing buffer, 100 μL of streptavidin solution was added thereto, left while shaking at room temperature for 45 minutes, and washed again 4 times with a washing buffer. After 100 μL of TMB One-step substrate was added thereto and left for 30 minutes, 50 μL of a reaction termination solution was added thereto, and then 450 nm absorbance was measured by a spectrophotometer.

TNF-α = details: 0.5, 2, 8, and 16 mg/kg intraperitoneally, after 1 hour
Experimental: as §3

[2] = test system: TFEB, cathepsin B, and cathepsin D; experiment: Western blot of TFEB, cathepsin B and cathepsin D expression; format: cell-based, ICR mouse; details: 1 μM TPEN with 20 μM alloferon D-form peptide, 4 hours (FIG. 5B)
Experimental: The cerebral cortex nerve cells of the mice were obtained by extracting the cerebrum from ICR mouse embryos of 13-14 day gestation. 6-7 hemispheres per culture dish were inoculated on 24-well culture dishes or 6-well culture dishes (SPL Life Science, South Korea) coated with 0.01% poly-D-lysine (Sigma, USA) prepared in advance. A cell culture medium, in which Dulbecco's Modified Eagle's Medium (DMEM, Gibco, USA) to which 20 mM glucose and 38 mM sodium bicarbonate were added and which was further supplemented with 5% fetal bovine serum (Hyclone, USA), 5% horse serum (Gibco, USA), and 1% glutamine, was used, and the cell culture medium was incubated in a cell incubator, in which the conditions of 37° C. and 5% CO2 were maintained, and was used in this experiment 10 to 12 days in vitro (DIV) after inoculation.
The present inventors had observed that the effect of enhancing the autophagic flux by the alloferon D-form peptides is achieved through the activity of cathepsin B and the decrease in the lysosomal pH, and thus, this time, the present inventors investigated through western blot analysis in order to find out whether there is a change in the amount of lysosomal protease expression. […]

[3] = test system: cerebral cortical nerve cells; experiment: Zinpyr-1 staining (zinc in the lysosome); format: cell-based, ICR mouse; details: in combination with 1 μM TPEN, 4 hours
Experimental: Subsequently, the present inventors measured the zinc concentration in the cells to determine what effect the treatment with the alloferon D-form peptides has on the zinc concentration in the lysosome. To this end, specifically, the cerebral cortical nerve cells were washed once with MEM, and then the MEM was replaced with MEM containing 5 μM zinpyr-1, an intracellular zinc marker (Cayman Chemical, USA, Ex=492 nm, Em=527 nm) and 75 nM lysotracker, and left at 37° C. for 30 minutes. Thereafter, it was washed with fresh MEM and treated with individual reagents (alloferon D-form peptides) according to the experimental conditions. Then, the cells were fixed with 4% PFA (pH 7.4) for 15 minutes, washed twice with PBS (Biowest, France), and photographed with a fluorescent microscope.

[4] = test system: Huntington protein aggregates (Htt aggregates); experiment: Mutant Huntington protein aggregates in transfected 293T cells; format: cell-based
Experimental: (§1) In addition, in this study, H4 cell line (GL-H4) and 293T cell line in which the GFP-LC3 plasmid was permanently infected were used. As a cell culture medium, 10% fetal bovine serum (Hyclone, USA) and a mixture solution of antibiotics and antifungal agents (WellGene, South Korea) were added to Minimum Essential Medium (MEM, WellGene) and incubated in a cell incubator in which the conditions of 37° C. and 5% CO2 were maintained.
(§2) In the pre-preparation process, 10-12 days after cell culture, the culture medium of the cerebral cortex nerve cells was changed to a minimum essential medium (MEM, Gibco, USA) without adding serum, and then was treated with N,N,N′,N′-tetrakis(2-pyridylmethyl)ethylene-diamine (TPEN, 2 μM, Sigma, USA), which is a zinc chelator, 50 μM chloroquine (CQ), 100 nM bafilomycin A-1 (Baf-A1), 500 μM methyl-beta-cyclodextrin (MβCD), and 2 μM chloropromazine (CP). Here, the MβCD is a caveolin-mediated endocytosis inhibitor, and CP is a clathrin-mediated endocytosis inhibitor. In addition, in the cell line experiments, the medium was changed to MEM according to the purpose of the experiments and was then treated with 40 μM chloroquine (CQ) and 100 nM bafilomycin A-1 (Baf-A1). During the pre-preparation process, the medium was treated with alloferon D-form peptides (0.2, 2, or 20 μM), free zinc (25 μM), TPEN (1 μM), and the like separately or together according to the purpose of each experiment.
Subsequently, the present inventors investigated whether alloferon may dissolve Huntington protein aggregates (Htt aggregates) generated after the transient transfection of mutant Huntington protein (mt-Htt) into 293T cell lines. To this end, GFP-tagged Huntington Q74 (GFP-mHttQ74) DNA was transiently transfected into 293T cell lines using Lipofectamine2000. For cell observation, GFP signals were analyzed through a fluorescence microscope, and ImageJ was used for size and number analysis of GFP-positive aggregates (FIG. 8A). GFP-mHttQ74 DNA was provided by Dr. David C. Rubinsztein of the University of Cambridge, England (Park et al., Neurobiol. Dis. 42: 242-251, 2011). […]

[5] = test system: β-amyloid aggregates (Aβ aggregates); experiment: β-amyloid 1-42 protein aggregates in transfected 293T cells; format: cell-based
Experimental: as §1, §2
Subsequently, the present inventors investigated whether alloferon may dissolve the β-amyloid aggregates (Aβ aggregates) generated after the transient transfection of β-amyloid 1-42 (Aβ1-42) into 293T cell lines. To this end, EGFP-tagged 1-42Aβ (pEGFP-C1-Abeta 1-42) DNA was transiently transfected into 293T cell lines using Lipofectamine2000. For cell observation, GFP signals were analyzed through a fluorescence microscope, and ImageJ was used for size and number analysis of GFP-positive aggregates. pEGFP-C1-Abeta 1-42 DNA was purchased from Addgene. Western blot analysis was performed in the same manner as in Example 5, except that anti-6E10-antibodies (Biolegend, USA) were used as the antibodies (FIG. 7).

H4 cell line (GL-H4) = experiment: LC3-GFP puncta, autophagic flux blocked by chloroquine (fluorescence microscopy); format: cell-based; details: 50 μM CQ alone
Experimental: In addition, in this study, H4 cell line (GL-H4) and 293T cell line in which the GFP-LC3 plasmid was permanently infected were used. As a cell culture medium, 10% fetal bovine serum (Hyclone, USA) and a mixture solution of antibiotics and antifungal agents ([…], South Korea) were added to Minimum Essential Medium ([…]) and incubated in a cell incubator in which the conditions of 37° C. and 5% CO2 were maintained. […] Here, the MβCD is a caveolin-mediated endocytosis inhibitor, and CP is a clathrin-mediated endocytosis inhibitor. In addition, in the cell line experiments, the medium was changed to MEM according to the purpose of the experiments and was then treated with 40 μM chloroquine (CQ) and 100 nM bafilomycin A-1 (Baf-A1). During the pre-preparation process, the medium was treated with alloferon D-form peptides (0.2, 2, or 20 μM), free zinc (25 μM), TPEN (1 μM), and the like separately or together according to the purpose of each experiment. […] Protein quantification was performed using BCA protein assay kit (Pierce Biotechnology, USA). Then, 5× sample buffer (300 mM Tris, pH 6.8, 10% SDS, 50% glycerol, 0.1% BPB, 2.5% mercaptoethanol, and 100 mM DTT) was mixed with a quantified sample and denatured at 95° C. for 5 minutes to prepare the sample. […]

cortical nerve cells [6] = experiment: Lysotracker staining (lysosomal pH); format: cell-based, ICR mouse
Excerpt: The cerebral cortex nerve cells of the mice were obtained by extracting the cerebrum from ICR mouse embryos of 13-14 day gestation. 6-7 hemispheres per culture dish were inoculated on 24-well culture dishes or 6-well culture dishes (SPL Life Science, South Korea) coated with 0.01% poly-D-lysine (Sigma, USA) prepared in advance. […]
Since it was confirmed through FIG. 2 that alloferon may promote the autophagic flux, whether the alloferon D-form peptides are involved in pH change in the lysosome was confirmed through lysotracker staining. […] It means that the stronger the fluorescence intensity, the lower the pH, and the weaker the fluorescence intensity, the higher the pH. It was confirmed that the pH in the lysosome was lowered by only the treatment with the alloferon D-form peptides compared to the control (FIG. 3A), and when treatment with 50 μM CQ was performed, the fluorescence intensity decreased compared to the control, and this was recovered by the treatment with the alloferon D-form peptides and zinc (FIG. 3B). […]

cortical nerve cells [7] = experiment: Mechanism of action: receptor-mediated endocytosis, p62/LC3 western blot with Baf-A1; format: cell-based, ICR mouse; details: inhibitor administered alone (500 μM MβCD or 2 μM CP) with Baf-A1 + 20 μM peptide (FIG. 9B)
Experimental: as §2
Since the protein cannot pass through the cell membrane, the present inventors thought that the alloferon D-form peptides would be introduced through an endocytosis process. Thus, the present inventors investigated whether the alloferon D-form peptides act through a receptor-mediated endocytosis process. […]

[8] = In vitro plasma stability analysis (LC / mass spectrometry)
Experimental: In vitro plasma stability analysis was performed in order to compare the stability of L-form peptides and D-form peptides of the alloferon in the plasma of mice. […] The 10 μM alloferon L-form and D-form peptides were put into 100 μL of plasma, respectively, and then allowed to stand at 37° C. for 0, 5, 10, 30, 60, and 90 minutes. Thereafter, 500 μL of cold methanol was added thereto to precipitate proteins, and the proteins were lyophilized, followed by liquid chromatography and protein mass spectrometry.

[9] = 100 nM bafilomycin A1 alone, 12 hours
[10] = treatment alone, without Baf-A1

CC(C)[C@@H](NC(=O)CNC(=O)[C@H](N)Cc1c[nH]cn1)C(=O)N[C@H](CO)C(=O)NCC(=O)N[C@H](Cc1c[nH]cn1)C(=O)NCC(=O)N[C@H](CCC(N)=O)C(=O)N[C@H](Cc1c[nH]cn1)C(=O)NCC(=O)N[C@@H](C(=O)N[C@H](Cc1c[nH]cn1)C(=O)NCC(=O)O)C(C)C [alloferon D-form peptides] (H-[dH]G[dV][dS]G[dH]G[dQ][dH]G[dV][dH]G-OH; N-terminus and C-terminus assumed)
amount of changes in the body weights of mice [1]: did not change
changes in IL-6 in plasma compared to the control (IL-6): not observed
changes in TNF-α in plasma compared to the control (TNF-α): not observed

c1ccc(CN(CCN(Cc2ccccn2)Cc2ccccn2)Cc2ccccn2)nc1 [TPEN, N,N,N′,N′-tetrakis(2-pyridylmethyl)ethylene-diamine]
amounts of TFEB, cathepsin B, and cathepsin D [2]: reduced
Zinpyr-1 fluorescence increased by the alloferon D-form peptides [3]: reduced

CO/C1=C\C(C)=C\[C@@H](C)[C@@H](O)[C@@H](C)C/C(C)=C/C=C/[C@H](OC)[C@@H]([C@@H](C)[C@@H](O)[C@H](C)[C@@]2(O)C[C@@H](O)[C@H](C)[C@@H](C(C)C)O2)OC1=O [Baf-A1, bafilomycin A-1]
Huntington protein aggregates [4, 9]: increased
β-amyloid protein aggregates [5, 9]: increased

CCN(CC)CCCC(C)Nc1ccnc2cc(Cl)ccc12 (stereo not shown) [CQ, chloroquine]
number and size of LC3 puncta (H4 cell line (GL-H4)): significantly increased
lysotracker fluorescence intensity compared to the control (cortical nerve cells [6]; 50 μM CQ alone, 4 hours): decreased

CN(C)CCCN1c2ccccc2Sc2ccc(Cl)cc21 [CP, chloropromazine]
effect of the alloferon D-form peptides on autophagic flux (cortical nerve cells [7]): not changed

methyl-beta-cyclodextrin [MβCD]
effect of the alloferon D-form peptides on autophagic flux (cortical nerve cells [7]): not changed

[Zn] [zinc]
lysotracker fluorescence intensity decreased by 50 μM CQ (cortical nerve cells [6]; 20 μM peptide or 25 μM zinc + 50 μM chloroquine, 4 hours (FIG. 3B)): recovered
Huntington protein aggregates increased by Baf-A1 ([4]; 100 nM bafilomycin A1 + 20 μM peptide or 25 μM zinc, 12 hours (FIG. 8)): decreased
Huntington protein aggregates compared to the control [4, 10]: no change
β-amyloid protein aggregates increased by Baf-A1 (fluorescence) ([5]; 100 nM bafilomycin A1 + 2 or 20 μM peptide or 25 μM zinc, 12 hours (FIG. 7A)): decreased
β-amyloid aggregates increased by Baf-A1 (western blot) ([5]; 100 nM bafilomycin A1 + peptide or 25 μM zinc, 12 hours (FIG. 7B)): decreased
β-amyloid protein aggregates compared to the control group [5, 10]: no change

HGVSGHGQHGVHG [alloferon L-form peptides]
degradation / stability in plasma ([8]; mouse plasma, 10 μM, 37° C., 0-90 minutes): degraded from an early time in plasma
half-life ([8]; mouse, plasma): 51.8 min
